Test results from patent publication US7368129B1, “Amphiphilic materials and liposome formulations thereof” (Nutrimed Biotech, priority 1996, dated 2008).

Experiment: X-ray diffraction of hydrated amphiphile and phosphatidylcholine mixtures at constant osmotic pressure
Format: physicochemical
Details: 20° C., constant osmotic pressure 1.6×10^5 dyne/cm^2; 20 mole percent Oleoyl-PEG(1500)-Oleoyl; pure SOPC = 0 mole % additive
Excerpt: Unoriented multilamellar fully hydrated lipid preparations in sealed glass capillaries held in a point collimated X-ray beam produce recordable “powder” diffraction patterns. The overall lamellar repeat period calculated from X-ray diffraction pattern comprises discernible double lipid chain thickness and interbilayer separation arising from the aqueous fluid in contact with the polar head groups. For osmotically stressed multilamellar preparations, the interbilayer separation decreases as a function of applied pressure and reaches a minimum approaching the closest contact for the head groups of the opposing phospholipids. […]
In the multilamellar vesicles prepared from phospholipid compositions doped with the novel amphiphiles, the bulky head group residues are expected to reside in and enlarge (widen) the interbilayer gap. Therefore, in comparative studies on preparations with and without a selected amphiphile, the interbilayer repeat distances are measured. In addition, the effect of osmotic pressures, produced by 4% PVP (up to ca. 1.6×10^5 dyne/cm^2), is evaluated. […]
X-ray diffraction was used to characterize the liposomes (MLVs) prepared in EXAMPLE 1 by hydration of selected novel amphiphile and PC mixtures. […] Osmotic pressures for PVP solutions are recorded in the literature (Parsegian et al., 1986). […]

lamellar repeat period d100 in SOPC as a function of mole percent additive: 58 Å
SMILES: CCCCCCCC/C=C\CCCCCCCC(=O)O[C@H](COC(=O)CCCCCCCCCCCCCCCCC)COP(=O)([O-])OCC[N+](C)(C)C [SOPC, 1-stearoyl-2-oleoyl-sn-glycero-3-phosphocholine]
